Laboratory results as given in the supplement of paper PMC3974653.
Structures can show the parent of a compound that is named as a salt.

What follows are compounds tested on MTT (mouse pheochromocytoma) (assay: IC50 of cell viability (ATP content)). Conditions: (24 or 48 h).
In short: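 MTT mouse pheochromocytoma cells were seeded into white 1536-well plates at 5 µl per well from a 200,000 cells/ml suspension in DMEM with 5% FBS and 1% horse serum, then cultured overnight at 37°C, 5% CO2. A pintool added 23 nl of library compound in DMSO at 8 concentrations (final 0.5 nM to 46 µM) for 24 or 48 hrs, and CellTiter-Glo ATP luminescence was read after 15 minutes. Signals were scaled so that positive-control wells equalled 100% and DMSO wells 0%. IC50 values were derived by fitting a four-parameter logistic curve.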
With `Nc1nc(O)c2nc(CNc3ccc(C(=O)N[C@@H](CCC(=O)O)C(=O)O)cc3)cnc2n1` [Folic acid] the “IC50 of cell viability” value was > 46 µM. `O=C(O)COc1ccccc1/C=N/NC(=O)c1ccncc1` [Aconiazida] was tested, and the “IC50 of cell viability” value was > 46 µM. In the case of `CCCCC/C=C\C/C=C\CCCCCCCC(=O)O` [Linoleic acid], the “IC50 of cell viability” value is reported as > 46 µM. For `CC(=O)NC\1=N\C(=O)N(\C=C1)C2COC(COC(=O)C3=CC=CC=C3)O2` (stereo not drawn), the “IC50 of cell viability” value was > 46 µM. With `CCOC(=O)C1(c2ccccc2)CCN(CCC(C#N)(c2ccccc2)c2ccccc2)CC1` [DIPHENOXYLATE HYDROCHLORIDE] the “IC50 of cell viability” value was > 46 µM. For `O=C(O)Cn1c(C(=O)Nc2nc(-c3ccccc3Cl)cs2)cc2ccccc21` [LINTITRIPTUM], the “IC50 of cell viability” value was > 46 µM. With `CC(C)/N=c1\cc2n(-c3ccc(Cl)cc3)c3ccccc3nc-2cc1Nc1ccc(Cl)cc1` [Clofazimine] the “IC50 of cell viability” value was > 46 µM. With `Cl.NCCc1cc(O)c(O)cc1O` [OXIDOPAMINE HYDROCHLORIDE] the “IC50 of cell viability” value was > 46 µM. `C=C[C@H]1CN2CCC1C[C@H]2[C@H](O)c1ccnc2ccc(OC)cc12` (stereo partly drawn) [QUININE ASCORBATE] was tested, and the “IC50 of cell viability” value was > 46 µM. For `Cl.Cn1ccc2cc3c(cc21)CCN3C(=O)Nc1cccnc1`, the “IC50 of cell viability” value was > 46 µM. For `CN(CCOc1ccc(CC2SC(=O)NC2=O)cc1)c1ccccn1` (stereo not drawn) [ROSIGLITAZONE], the “IC50 of cell viability” value was > 46 µM. In the case of `NC(Cc1ccc(Cl)cc1)C(=O)O` (stereo not drawn) [p-Chlorophenylalanine], the “IC50 of cell viability” value is reported as > 46 µM. With `C=CCc1cc(OC)c(O)c(C(=O)NCCO)c1` [Alibendol] the “IC50 of cell viability” value was > 46 µM. For `CO/N=C(/C(=O)N[C@@H]1C(=O)N2C(C(=O)O)=C(C[n+]3ccc(N)n3CCO)CS[C@H]12)c1csc(N)n1` [CEFOSELIS SULFATE], the “IC50 of cell viability” value was > 46 µM. `CC(C)CCCC(C)NC(C)C` (stereo not drawn) [IPROHEPTINE HYDROCHLORIDE] was tested, and the “IC50 of cell viability” value was > 46 µM. `CN[C@@H]1CCc2[nH]c3ccc(C(N)=O)cc3c2C1.O.O=C(O)CCC(=O)O` [Frovatriptan Succinate Monohydrate] was tested, and the “IC50 of cell viability” value was > 46 µM. With `CCCN1CCCC[C@H]1C(=O)Nc1c(C)cccc1C` [ROPIVACAINE HYDROCHLORIDE MONOHYDRATE] the “IC50 of cell viability” value was > 46 µM. With `CC(=O)OCC(=O)[C@H]1CC[C@H]2[C@@H]3CCC/4=C/C(=O)CC[C@]4(C)[C@H]3CC[C@]12C` [DESOXYCORTICOSTERONE ACETATE] the “IC50 of cell viability” value was > 46 µM. For `C[C@]12CC[C@H]3[C@@H](CC/C4=C/C(=O)CC[C@]34C)[C@@H]1CC[C@H]2O` [Testosterone], the “IC50 of cell viability” value was > 46 µM. For `NCC[C@H](O)C(=O)N[C@@H]1C[C@@H](N)[C@@H](O[C@@H]2O[C@@H](CN)[C@@H](O)[C@@H](O)[C@H]2N)[C@@H](O[C@@H]2O[C@@H](CO)[C@@H](O)[C@H]2O)[C@H]1O` [Butirosin disulfate salt], the “IC50 of cell viability” value was > 46 µM. `CN1CCC[C@H](CC2c3ccccc3Sc3ccccc32)C1` [Metixene hydrochloride] was tested, and the “IC50 of cell viability” value was > 46 µM. For `CC(=O)OCC(=O)[C@@]1(O)CC[C@@H]2[C@H]3CC\C4=C\C(=O)\C=C/[C@]4(C)[C@]3(F)[C@@H](O)C[C@@]12C` [Isoflupredone acetate], the “IC50 of cell viability” value was > 46 µM. With `CC/1=C(\CCN2CCC(CC2)=C(C3=CC=C(F)C=C3)C4=CC=C(F)C=C4)C(=O)N/5\C=C/SC5=N1` [Ritanserin] the “IC50 of cell viability” value was > 46 µM. For `CN(C)c1nc(N(C)C)nc(N(C)C)n1` [Altretamine], the “IC50 of cell viability” value was > 46 µM. `O=C1/C(=C\c2cccs2)CCC/C1=C/c1cccs1` [Tenilidona] was tested, and the “IC50 of cell viability” value was > 46 µM. For `OC\1=C(O)\C(=O)\C(=C(O)/C1=O)O` [TETROQUINONE], the “IC50 of cell viability” value was > 46 µM. `CCCCOc1ccc(C(=O)CCN2CCCCC2)cc1` [Dyclonine hydrochloride] was tested, and the “IC50 of cell viability” value was > 46 µM. In the case of `O=C(NC(=O)c1c(F)cccc1F)Nc1ccc(Cl)c(Oc2ncc(C(F)(F)F)cc2Cl)c1` [Fluazuron], the “IC50 of cell viability” value is reported as > 46 µM.
